# Data as given in patent US10051861B2, “N-arylamidine-substituted trifluoroethyl sulfide derivatives as acaricides and insecticides” (BAYER CROPSCIENCE AG, priority 2011, dated 2018).
# Test system: greenhouse red spider mite (Tetranychus urticae)
# Experiment: Tetranychus urticae spray test, OP-resistant (TETRUR), bean leaf disks
# Type: in vivo
# Conditions: Tetranychus urticae, foliar, 144 h, application rate 500 g/ha, after 6 days; read-out: efficacy (spider mites killed)
# Protocol: After 6 days, the effect in % is determined.
row,SMILES,pest or weed control at 500 g/ha
1,CN/C(=N/c1cc([S+]([O-])CC(F)(F)F)c(C)cc1F)c1ccccc1C(F)(F)F (stereo not shown) [Ib-148],100%
2,CN/C(=N\c1cc([S+]([O-])CC(F)(F)F)c(C)cc1F)c1ccc(Cl)cc1 (stereo not shown) [Ib-37],100%
3,N/C(=N\c1cc([S+]([O-])CC(F)(F)F)c(Cl)cc1Cl)C1(Cl)CC1 (stereo not shown) [Ib-64],100%
4,Cc1cc(Cl)c(SCC(F)(F)F)cc1/N=C(\N)c1ccccn1 [Ia-49],100%
5,CN/C(=N\c1cc([S+]([O-])CC(F)(F)F)c(C)cc1C)c1ccc(Cl)cc1 (stereo not shown) [Ib-100],100%
6,Cc1cc(F)c(/N=C(\N)c2ccccn2)cc1[S+]([O-])CC(F)(F)F (stereo not shown) [Ib-45],100%
7,CN(C)/C(=N/c1cc([S+]([O-])CC(F)(F)F)c(Br)cc1Br)C(F)(F)F (stereo not shown) [Ib-25],100%
8,Cc1cc(Cl)c(SCC(F)(F)F)cc1/N=C(\N)C1(Cl)CC1 [Ia-74],100%
9,Cc1cc(F)c(/N=C(\c2ccc(C#N)cc2)N(C)C)cc1[S+]([O-])CC(F)(F)F (stereo not shown) [Ib-61],100%
10,Cc1cc(F)c(/N=C(/N2CCCC2)C(F)(F)F)cc1SCC(F)(F)F [Ia-180],90%
11,Cc1cc(F)c(/N=C(/c2ccccc2Cl)N(C)C)cc1SCC(F)(F)F [Ia-84],100%
12,Cc1cc(C)c(SCC(F)(F)F)cc1/N=C1\CCCN1C [Ia-105],90%
13,CN(C)/C(=N/c1ccc(Cl)c(SCC(F)(F)F)c1)C(F)(F)F [Ia-77],100%
14,CN1CCCC/C1=N\c1cc(SCC(F)(F)F)c(Cl)cc1Cl [Ia-62],90%
15,C/C=C/C=C/C(=N/c1cc(SCC(F)(F)F)c(C)cc1F)NC(C)CC (stereo not shown) [Ia-178],90%
16,CN/C(=N\c1cc(SCC(F)(F)F)c(C)cc1F)c1ccccn1 [Ia-72],100%
17,COc1cc(C)c(SCC(F)(F)F)cc1/N=C(\N)C1(Cl)CC1 [Ia-255],90%
18,O=C1CS/C(=N\c2cc(SCC(F)(F)F)c(Cl)cc2Cl)N1C1CC1 [Ia-196],90%
19,Cc1cc(F)c(/N=C(\N)C2CC2)cc1[S+]([O-])CC(F)(F)F (stereo not shown) [Ib-53],100%
20,Cc1cc(F)c(/N=C(\N)C2CCCO2)cc1SCC(F)(F)F (stereo not shown) [Ia-99],100%
21,Cc1cc(F)c(/N=C(\c2ccc(C(F)(F)F)cc2)N(C)C)cc1[S+]([O-])CC(F)(F)F (stereo not shown) [Ib-124],90%
22,CN/C(=N/c1ccc(Cl)c(SCC(F)(F)F)c1)C(F)(F)F [Ia-217],100%
23,Cc1cc(F)c(/N=C(/NC2COC2)C(F)(F)F)cc1[S+]([O-])CC(F)(F)F (stereo not shown) [Ib-54],90%
24,Cc1cc(F)c(/N=C2/CCCN2CC(F)F)cc1SCC(F)(F)F [Ia-55],100%
25,Cc1cc(F)c(/N=C(\c2ccc(C#N)cc2)N(C)C)cc1SCC(F)(F)F [Ia-131],100%
26,"CN/C(=N\c1cc(SCC(F)(F)F)c(C)cc1F)c1cccnc1 [Ia-61, N′-{2-Fluoro-4-methyl-5-[(2,2,2-trifluoroethyl)sulfanyl]phenyl}-N-methylpyridine-3-carboximidamide]",100%
27,Cc1cc(C)c(SCC(F)(F)F)cc1/N=C(\N)c1ccc(Cl)nc1 [Ia-81],100%

row,SMILES,pest or weed control at 500 g/ha
1,Cc1cc(C)c([S+]([O-])CC(F)(F)F)cc1/N=C1\SCC(=O)N1C1CC1 (stereo not shown) [Ib-156],90%
2,Cc1cc(F)c(/N=C(/NC(C)(C)C)C(F)(F)F)cc1[S+]([O-])CC(F)(F)F (stereo not shown) [Ib-50],100%
3,CN/C(=N\c1cc(SCC(F)(F)F)c(Cl)cc1Cl)c1cccnc1 [Ia-136],100%
4,FC(F)(F)CN/C(=N\c1cc(SCC(F)(F)F)c(Cl)cc1Cl)C1CCC1 [Ia-259],90%
5,Cc1cc(F)c(N=C(N)CC#N)cc1SCC(F)(F)F [Ia-132],100%
6,Cc1cc(F)c(/N=C(\c2ccc(C(F)(F)F)nc2)N(C)C)cc1[S+]([O-])CC(F)(F)F (stereo not shown) [Ib-75],100%
7,Cc1cc(F)c(/N=C(\N)C2CCCCC2)cc1[S+]([O-])CC(F)(F)F (stereo not shown) [Ib-131],100%
8,Cc1cc(Cl)c(/N=C(\N)C(F)(F)C(F)(F)Cl)cc1SCC(F)(F)F [Ia-30],100%
9,CN(C)/C(=N\c1cc([S+]([O-])CC(F)(F)F)c(Cl)cc1Cl)c1ccc(Cl)nc1 (stereo not shown) [Ib-119],100%
10,Cc1cc(F)c(/N=C(\NCC(F)(F)F)C2CCC2)cc1SCC(F)(F)F [Ia-261],90%
11,CN/C(=N\c1cc([S+]([O-])CC(F)(F)F)c(C)cc1F)c1cccc(Cl)c1 (stereo not shown) [Ib-76],100%
12,C#CCN/C(=N\c1cc(SCC(F)(F)F)c(C)cc1F)C1CC1 [Ia-249],100%
13,Cc1cc(F)c(/N=C(\NCC(F)F)C2CC2)cc1[S+]([O-])CC(F)(F)F (stereo not shown) [Ib-132],100%
14,Cc1cc(Cl)c(/N=C(/c2ccc(Cl)cc2)N(C)C)cc1SCC(F)(F)F [Ia-71],100%
15,Cc1cc(F)c(/N=C(\NC2CC2)c2ccc(Cl)nc2)cc1SCC(F)(F)F [Ia-158],100%
16,N/C(=N\c1cc(SCC(F)(F)F)c(Cl)cc1Cl)C1CCCO1 (stereo not shown) [Ia-262],90%
17,Cc1cc(F)c(/N=C(/N2CCCC2)C(F)(F)F)cc1[S+]([O-])CC(F)(F)F (stereo not shown) [Ib-96],90%
18,Cc1cc(F)c(/N=C2\SCC(=O)N2CC(F)F)cc1SCC(F)(F)F [Ia-188],100%
19,Cc1cc(Cl)c([S+]([O-])CC(F)(F)F)cc1/N=C(\N)c1cnccn1 (stereo not shown) [Ib-153],90%
20,Cc1cc(F)c(/N=C(\c2cccc(C(F)(F)F)c2)N(C)C)cc1[S+]([O-])CC(F)(F)F (stereo not shown) [Ib-114],100%
21,Cc1cc(F)c(/N=C2\SCC(=O)N2C2CC2)cc1SCC(F)(F)F [Ia-197],100%
22,N/C(=N\c1cc(SCC(F)(F)F)c(Cl)cc1Cl)C(F)F [Ia-125],100%
23,N/C(=N\c1cccc(SCC(F)(F)F)c1)c1ccncc1 [Ia-101],90%
24,CN/C(=N/c1cc(SCC(F)(F)F)c(C)cc1F)c1ccc(Cl)s1 [Ia-218],90%
25,Cc1cc(F)c(/N=C(\N)C2CC2(Cl)Cl)cc1SCC(F)(F)F (stereo not shown) [Ia-75],100%
26,Cc1cc(F)c(/N=C(/C2CC2)N(C)C)cc1[S+]([O-])CC(F)(F)F (stereo not shown) [Ib-51],100%
27,Cc1cc(C)c([S+]([O-])CC(F)(F)F)cc1/N=C(/c1ccccc1)N(C)C (stereo not shown) [Ib-126],100%

row,SMILES,pest or weed control at 500 g/ha
1,CN/C(=N/c1cc(SCC(F)(F)F)c(C)cc1F)c1ccc(F)cc1 [Ia-144],100%
2,CN/C(=N/c1cc([S+]([O-])CC(F)(F)F)c(C)cc1F)c1cccc(C(F)(F)F)c1 (stereo not shown) [Ib-113],100%
3,N/C(=N\c1cc([S+]([O-])CC(F)(F)F)c(Cl)cc1Cl)c1ccncn1 (stereo not shown) [Ib-69],100%
4,Cc1cc(C)c(SCC(F)(F)F)cc1/N=C1\SCC(=O)N1C1CC1 [Ia-187],100%
5,CN/C(=N/c1cc(SCC(F)(F)F)c(C)cc1F)c1ccc(C(F)(F)F)nc1 [Ia-159],90%
6,N/C(=N\c1cccc(SCC(F)(F)F)c1)C1(Cl)CC1 [Ia-100],100%
7,Cc1cc(F)c(/N=C(\c2ccc(C(F)(F)F)nc2)N(C)C)cc1SCC(F)(F)F [Ia-160],90%
8,Cc1cc(F)c(/N=C(/N)c2ccc(Cl)cc2)cc1SCC(F)(F)F [Ia-215],90%
9,Cc1ccc(/N=C2\SCC(=O)N2CC(F)(F)F)cc1SCC(F)(F)F [Ia-195],100%
10,Cc1cc(F)c(/N=C(/c2ccccc2Cl)N2CCOCC2)cc1SCC(F)(F)F [Ia-230],100%
11,CN/C(=N\c1cc(SCC(F)(F)F)c(C)cc1F)c1ccccc1Cl [Ia-69],100%
12,CN/C(=N\c1cc(SCC(F)(F)F)c(C)cc1C)c1cccnc1 [Ia-91],90%
13,O=C1CS/C(=N\c2cc([S+]([O-])CC(F)(F)F)c(Cl)cc2F)N1CC(F)(F)F (stereo not shown) [Ib-120],100%
14,CCN(C)/C(=N\c1cc(SCC(F)(F)F)c(C)cc1C)c1ccc(Cl)cc1 [Ia-231],90%
15,CN/C(=N\c1cc(SCC(F)(F)F)c(Cl)cc1Cl)c1cccc(Cl)c1 [Ia-177],90%
16,CN/C(=N\c1cc([S+]([O-])CC(F)(F)F)c(C)cc1F)c1ccncc1 (stereo not shown) [Ib-97],100%
17,Cc1cc(F)c(/N=C(\N(C)C)C2(C(C)C)CC2(Cl)Cl)cc1SCC(F)(F)F (stereo not shown) [Ia-106],90%
18,O=C1CS/C(=N\c2cc([S+]([O-])CC(F)(F)F)ccc2F)N1CC(F)(F)F (stereo not shown) [Ib-117],100%
19,N/C(=N/c1cc(SCC(F)(F)F)c(Cl)cc1Br)C(F)(F)F [Ia-124],100%
20,Cc1cc(Cl)c(SCC(F)(F)F)cc1/N=C(\N)C(F)(F)C(F)(F)F [Ia-70],100%
21,CN/C(=N/c1cc(SCC(F)(F)F)c(Br)cc1F)C(F)(F)F [Ia-43],100%
22,Cc1cc(C)c(SCC(F)(F)F)cc1/N=C(\N)c1cnccn1 [Ia-190],90%
23,Cc1cc(C)c([S+]([O-])CC(F)(F)F)cc1/N=C(\NC1CC1)c1ccc(Cl)nc1 (stereo not shown) [Ib-136],90%
24,Cc1cc(C)c(SCC(F)(F)F)cc1/N=C(/c1ccccc1)N(C)C [Ia-240],90%
25,Cc1cc(F)c(/N=C(\NC2CCS(=O)(=O)C2)C2CC2)cc1SCC(F)(F)F (stereo not shown) [Ia-247],100%
26,O=C1CS/C(=N\c2ccc(Cl)c([S+]([O-])CC(F)(F)F)c2)N1CC(F)(F)F (stereo not shown) [Ib-146],90%

# Same assay, conditions: application rate 500 g/ha, after 6 days
row,SMILES,efficacy (spider mites killed)
1,Cc1cc(F)c(N=C(N)C(F)(F)C(F)(F)C(F)(F)C(F)(F)C(F)(F)C(F)(F)C(F)(F)F)cc1SCC(F)(F)F [Ia-06],100%
2,CN/C(=N\c1cc([S+]([O-])CC(F)(F)F)c(C)cc1F)c1cccnc1 (stereo not shown) [Ib-93],100%
